Where two headings read alike, the source gives them in different places. Where only a bound is given, the exact number is not on record here.

Assay [1] addresses T1, αvβ3 (vitronectin receptor) (Homo sapiens, UniProt P05106+P06756).
T1 construct: Human placenta or human platelet αvβ3 (0.1-0.3 mg/mL) in buffer T; from tissue; host or cells: human placenta or human platelets
The experiment in a line: Solid-phase [3H]-SK&F-107260 binding to αvβ3 (inhibition of vitronectin binding). The note with it: for ratio* (enhanced binding to vitronectin receptor vs fibrinogen receptor = αIIbβ3/αVβ3): selectivity αIIbβ3/αVβ3. As to the method: Inhibition of Vitronectin Binding
0.1-0.2 μg of αvβ3 was added per well. The plates were incubated overnight at 4° C. […] Following incubation the wells were aspirated completely and washed twice with 0.2 mL buffer A.
This solution is then diluted to the required final compound concentration.
The plates were incubated for 1 hr at room temperature. Following incubation the wells were aspirated completely and washed once with 0.2 mL of ice cold buffer A in a well-to-well fashion.

Assay [2] deals with GPIIb-IIIa (fibrinogen receptor, αIIbβ3) (Homo sapiens, UniProt P05106+P08514). The assay is described as follows: Competitive binding to GPIIb-IIIa with [3H]-SK&F-107260 (inhibition of RGD-mediated GPIIb-IIIa binding).
Chain of GPIIb-IIIa (fibrinogen receptor, αIIbβ3) (P08514 32-887 limits assumed): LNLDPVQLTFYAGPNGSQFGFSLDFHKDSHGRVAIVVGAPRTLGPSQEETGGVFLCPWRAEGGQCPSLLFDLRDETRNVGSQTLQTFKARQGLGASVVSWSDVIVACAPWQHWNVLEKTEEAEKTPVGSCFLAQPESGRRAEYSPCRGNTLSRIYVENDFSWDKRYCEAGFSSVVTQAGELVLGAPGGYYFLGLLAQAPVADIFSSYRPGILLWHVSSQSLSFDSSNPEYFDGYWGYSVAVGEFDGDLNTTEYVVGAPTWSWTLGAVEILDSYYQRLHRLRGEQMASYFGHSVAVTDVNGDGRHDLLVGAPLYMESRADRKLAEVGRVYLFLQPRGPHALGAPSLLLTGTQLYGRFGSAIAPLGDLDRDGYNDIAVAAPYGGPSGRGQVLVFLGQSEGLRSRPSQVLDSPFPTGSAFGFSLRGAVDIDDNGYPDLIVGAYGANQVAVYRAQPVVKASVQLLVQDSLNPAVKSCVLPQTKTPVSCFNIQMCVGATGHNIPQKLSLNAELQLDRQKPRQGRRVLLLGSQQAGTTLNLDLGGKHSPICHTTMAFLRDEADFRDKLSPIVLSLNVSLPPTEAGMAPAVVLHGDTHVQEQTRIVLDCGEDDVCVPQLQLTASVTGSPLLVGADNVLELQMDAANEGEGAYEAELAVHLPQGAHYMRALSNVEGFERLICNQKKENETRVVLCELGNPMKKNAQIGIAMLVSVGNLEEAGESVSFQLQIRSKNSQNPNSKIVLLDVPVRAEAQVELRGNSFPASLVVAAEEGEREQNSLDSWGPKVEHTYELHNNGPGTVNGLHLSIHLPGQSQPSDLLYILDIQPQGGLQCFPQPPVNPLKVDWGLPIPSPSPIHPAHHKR
Chain of GPIIb-IIIa (fibrinogen receptor, αIIbβ3) (P08514 891-1039 partner limits assumed): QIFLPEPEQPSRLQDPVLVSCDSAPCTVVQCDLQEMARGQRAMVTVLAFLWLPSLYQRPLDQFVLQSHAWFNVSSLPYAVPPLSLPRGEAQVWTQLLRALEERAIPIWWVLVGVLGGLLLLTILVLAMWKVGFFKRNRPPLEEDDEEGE
Chain of GPIIb-IIIa (fibrinogen receptor, αIIbβ3) (P05106 27-788): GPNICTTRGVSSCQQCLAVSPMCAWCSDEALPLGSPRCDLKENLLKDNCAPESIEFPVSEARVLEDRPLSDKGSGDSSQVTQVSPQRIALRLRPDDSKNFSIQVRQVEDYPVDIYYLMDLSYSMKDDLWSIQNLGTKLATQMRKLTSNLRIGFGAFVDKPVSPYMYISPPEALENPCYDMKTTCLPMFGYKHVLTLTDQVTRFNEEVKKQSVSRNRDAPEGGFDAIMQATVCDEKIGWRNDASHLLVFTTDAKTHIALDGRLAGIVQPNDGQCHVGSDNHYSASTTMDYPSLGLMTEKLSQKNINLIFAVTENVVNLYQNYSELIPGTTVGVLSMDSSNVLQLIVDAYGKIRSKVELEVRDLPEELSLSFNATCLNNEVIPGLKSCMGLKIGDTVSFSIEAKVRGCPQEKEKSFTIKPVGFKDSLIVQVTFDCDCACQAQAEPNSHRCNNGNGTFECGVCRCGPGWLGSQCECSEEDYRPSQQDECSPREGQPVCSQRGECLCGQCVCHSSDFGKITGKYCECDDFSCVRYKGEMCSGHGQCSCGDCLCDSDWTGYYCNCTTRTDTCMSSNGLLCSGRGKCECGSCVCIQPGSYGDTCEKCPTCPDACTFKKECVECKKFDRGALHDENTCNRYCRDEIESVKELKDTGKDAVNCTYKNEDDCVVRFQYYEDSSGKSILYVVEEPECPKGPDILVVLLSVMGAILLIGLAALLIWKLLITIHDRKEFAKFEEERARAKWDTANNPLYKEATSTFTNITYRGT
Protocol: Ten units of outdated, washed human platelets (obtained from Red Cross) were lyzed by gentle stirring in 3% octylglucoside, 20 mM Tris-HCl, pH 7.4, 140 mM NaCl, 2 mM CaCl2 at 4° C. for 2 h. The lysate was centrifuged at 100,000 g for 1 h. The supernatant obtained was applied to a 5 mL lentil lectin sepharose 4B column (E.Y. Labs) preequilibrated with 20 mM Tris-HCl, pH 7.4, 100 mM NaCl, 2 mM CaCl2, 1% octylglucoside (buffer A). After 2 h incubation, the column was washed with 50 mL cold buffer A. The lectin-retained GPIIb-IIIa was eluted with buffer A containing 10% dextrose. All procedures were performed at 4° C.
A mixture of phosphatidylserine (70%) and phosphatidylcholine (30%) (Avanti Polar Lipids) were dried to the walls of a glass tube under a stream of nitrogen. […] The mixture was resuspended and sonicated in a bath sonicator for 5 min.
The binding assay was performed in a 96-well filtration plate assembly. (Millipore Corporation, Bedford, Mass.) using 0.22 um hydrophilic durapore membranes. The wells were precoated with 0.2 mL of 10 μg/mL polylysine (Sigma Chemical Co., St. Louis, Mo.) at room temperature for 1 h to block nonspecific binding. Various concentrations of unlabeled benzadiazapines were added to the wells in quadruplicate. […] The mixtures were incubated for 1 h at room temperature. […] Bound radioactivity remaining on the filters was counted in 1.5 mL Ready Solve (Beckman Instruments, Fullerton, Calif.) in a Beckman Liquid Scintillation Counter (Model LS6800), with 40% efficiency. […] All data points are the mean of quadruplicate determinations.
Competition binding data were analyzed by a nonlinear least-squares curve fitting procedure.

T1 sequence (P06756 31-889 limits assumed): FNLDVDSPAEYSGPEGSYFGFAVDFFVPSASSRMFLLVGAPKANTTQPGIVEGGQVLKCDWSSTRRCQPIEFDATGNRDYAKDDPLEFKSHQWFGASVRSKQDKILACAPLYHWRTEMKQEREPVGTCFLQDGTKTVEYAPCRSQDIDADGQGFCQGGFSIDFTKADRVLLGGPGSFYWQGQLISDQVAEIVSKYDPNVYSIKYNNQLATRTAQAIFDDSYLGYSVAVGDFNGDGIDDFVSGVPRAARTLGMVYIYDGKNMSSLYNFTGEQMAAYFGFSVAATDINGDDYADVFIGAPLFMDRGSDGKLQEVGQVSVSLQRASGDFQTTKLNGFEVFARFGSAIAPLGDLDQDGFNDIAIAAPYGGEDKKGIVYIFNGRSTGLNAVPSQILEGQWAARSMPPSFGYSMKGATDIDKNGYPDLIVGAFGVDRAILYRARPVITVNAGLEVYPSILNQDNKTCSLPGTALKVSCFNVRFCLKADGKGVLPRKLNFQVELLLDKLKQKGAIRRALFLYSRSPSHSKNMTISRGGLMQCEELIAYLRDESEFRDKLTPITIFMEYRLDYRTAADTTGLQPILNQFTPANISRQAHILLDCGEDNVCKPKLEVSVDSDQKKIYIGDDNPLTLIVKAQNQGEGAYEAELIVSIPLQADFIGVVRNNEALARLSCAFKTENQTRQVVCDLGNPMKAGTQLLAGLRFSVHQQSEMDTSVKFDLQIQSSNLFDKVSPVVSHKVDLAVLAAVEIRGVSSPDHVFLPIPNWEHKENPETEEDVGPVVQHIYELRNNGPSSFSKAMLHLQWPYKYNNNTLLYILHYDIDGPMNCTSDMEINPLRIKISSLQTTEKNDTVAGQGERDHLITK
T1 sequence (P06756 891-1048 partner limits assumed): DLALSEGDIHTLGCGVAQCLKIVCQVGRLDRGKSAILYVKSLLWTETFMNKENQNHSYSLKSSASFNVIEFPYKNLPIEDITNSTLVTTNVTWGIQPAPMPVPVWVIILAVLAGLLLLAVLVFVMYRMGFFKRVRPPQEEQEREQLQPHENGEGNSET
T1 sequence (P05106 27-788): as the sequence (P05106 27-788) above

Take `CN1Cc2cc(C(=O)N3CCN(c4ncccn4)CC3)ccc2NC(CC(=O)O)C1=O` (racemic) [Example 14, (±)-4-methyl-3-oxo-7-[1-[4-(2-pyrmidinyl)piperazinyl]carbonyl]-2,3,4,5-tetrahydro-1H-1,4-benzodiazepine-2-acetic acid]: the figures for the Ki in assay [1] (read-out: αVβ3) and in assay [2] were 6.2 µM and more than 50 µM, respectively. Moreover, the “ratio* (enhanced binding to vitronectin receptor vs fibrinogen receptor = αIIbβ3/αVβ3)” value (“ratio*” for short) in assay [1] was more than 8.

Regarding `CN1Cc2cc(NC(=O)CN)ccc2CC(CC(=O)O)C1=O` (racemic) [Example 20, (±)-8-[(2-aminoacetyl)amino]-2-methyl-3-oxo-2,3,4,5-tetrahydro-1h-2-benzazepine-4-acetic acid], the results for the Ki in assay [1] (read-out: αVβ3) and in assay [2] were 1.55 µM and 45 µM, respectively. The “ratio*” value in assay [1] is recorded as 29.

For `CN1Cc2cc(C(=O)Nc3cccc(C(N)=O)c3)ccc2NC(CC(=O)O)C1=O` (racemic) [Example 8, (±)-7-[[[3-(aminocarbonyl)phenyl]amino]carbonyl]-4-methyl-3-oxo-2,3,4,5-tetrahydro-1H-1,4-benzodiazepine-2-acetic acid], the Ki is 12.3 µM in assay [1] (read-out: αVβ3) and more than 50 µM in assay [2]. Further, in assay [1], the “ratio*” value is reported as more than 4.

For the compound `CN1Cc2cc(NC(=O)CNc3ccccn3)ccc2CC(CC(=O)O)C1=O` (racemic) [Example 18, (±)-8-[[(2-(2-pyridinylamino)acetyl]amino]-2-methyl-3-oxo-2,3,4,5-tetrahydro-1H-2-benzazepine-4-acetic acid], the Ki in assay [1] (read-out: αVβ3) was 1.3 µM; in assay [2], 30 µM. In addition, in assay [1], the “ratio*” value is recorded as 23.

Take `CN1Cc2cc(C(=O)N3CCN(c4ccccc4)CC3)ccc2NC(CC(=O)O)C1=O` (racemic) [Example 9, (±)-4-methyl-3-oxo-7-[1-(4-phenylpiperazinyl)carbonyl]-2,3,4,5-tetrahydro-1H-1,4-benzodiazepine-2-acetic acid]: the Ki in assay [1] (displacement of 5.0 nM [3H]-SK&F-107260 from human placenta or platelet αvβ3, table does not say whether IC50 or Ki, method derives Ki, read-out: αVβ3) is 9.23 µM; in assay [2] it was more than 100 µM. In addition, the “ratio*” value in assay [1] was more than 11.

As to `CN1Cc2cc(NC(=O)CCN)ccc2CC(CC(=O)O)C1=O` (racemic) [Example 21, (+/±)-8-[(3-aminopropanoyl)amino]-2-methyl-3-oxo-2,3,4,5-tetrahydro-1H-2-benzazepine-4-acetic acid], the Ki was 0.85 µM in assay [1] (read-out: αVβ3) and 52 µM in assay [2]. Besides, the “ratio*” value in assay [1] is recorded as 61.

Regarding `Nc1ccc(NC(=O)c2ccc3c(c2)CN(CCc2ccccc2)C(=O)C(CC(=O)O)N3)cn1` (racemic) [Example 3, (±)-7-[[(6-amino-3-pyridinyl)amino]carbonyl]-3-oxo-4-(2-phenylethyl)-2,3,4,5-tetrahydro-1H-1,4-benzodiazepine-2-acetic acid], the Ki in assay [1] (read-out: αVβ3) is 9.18 µM; in assay [2], 110 µM. In addition, the “ratio*” value in assay [1] is recorded as 12.

With `CN1Cc2cc(C(=O)N3CCN(Cc4ccccc4)CC3)ccc2NC(CC(=O)O)C1=O` (racemic) [Example 13, (±)-4-methyl-3-oxo-7-[1-[4-(phenylmethyl)piperazinyl]carbonyl]2,3,4,5-tetrahydro-1H-1,4-benzodiazepine-2-acetic acid], the results for the Ki in assay [1] (read-out: αVβ3) and in assay [2] were 9.5 µM and 15.4 µM, respectively. The “ratio*” value in assay [1] is 1.62.

With `CN(CCO)C(=O)c1ccc2c(c1)CN(C)C(=O)C(CC(=O)O)N2` (racemic) [Example 17, (±)-7-[[[N-(2-hydroxyethyl)-N-methyl]amino]carbonyl]-4-methyl-3-oxo-2,3,4,5-tetrahydro-1H-1,4-benzodiazepine-2-acetic acid], the Ki in assay [1] (read-out: αVβ3) is 15.2 µM; in assay [2], more than 50 µM. Moreover, the “ratio*” value in assay [1] is listed as more than 3.

Consider `CN1Cc2cc(C(=O)N3CCNCC3)ccc2NC(CC(=O)O)C1=O` (racemic) [Example 10, (±)-4-methyl-3-oxo-7-[(1-piperazinyl)carbonyl]-2,3,4,5-tetrahydro-1H-1,4-benzodiazepine-2-acetic acid], for which the figures for the Ki in assay [1] (read-out: αVβ3) and in assay [2] were 1.1 µM and 2.13 µM, respectively. In assay [1], the “ratio*” value is reported as more than 1.9.

In the case of `CN1Cc2cc(C(=O)NCc3cccnc3)ccc2NC(CC(=O)O)C1=O` (racemic) [Example 22, (±)-4-methyl-3-oxo-7-[[[(3-pyridinyl)methyl]amino]carbonyl]-2,3,4,5-tetrahydro-1H-1,4-benzodiazepine-2-acetic acid], in assay [1], the Ki was found to be 9.02 µM and the “ratio*” value is reported as 3. For the same compound, in assay [2], the Ki amounted to 27 µM.

With `CN1Cc2cc(NC(=O)OCc3ccccc3)ccc2CC(CC(=O)O)C1=O` (racemic) [Example 6, (±)-8-[(benzyloxycarbonyl)amino]-2-methyl-3-oxo-2,3,4,5-tetrahydro-1H-2-benzazepine-4-acetic acid], the Ki was 7.5 µM in assay [1] (read-out: αVβ3) and 17.5 µM in assay [2]. The “ratio*” value in assay [1] was 2.3.

Regarding `CN(CC(O)c1ccccc1)C(=O)c1ccc2c(c1)CN(C)C(=O)C(CC(=O)O)C2` (racemic) [Example 16, (±)-8-[[[(2-hydroxy-2-phenyl)ethyl]methylamino]carbonyl]-2-methyl-3-oxo-2,3,4,5-tetrahydro-1H-2-benzazepine-4-acetic acid], the values for the Ki in assay [1] (read-out: αVβ3) and in assay [2] were 9.5 µM and 28 µM, respectively. Also, the “ratio*” value in assay [1] is reported as 2.9.

As for `CN1Cc2cc(NC(=O)[C@@H](N)Cc3ccccc3)ccc2CC(CC(=O)O)C1=O` (mixture of isomers) [Example 15, 8-[[2S-amino-3-phenylpropanoyl]amino]-2-methyl-3-oxo-2,3,4,5-tetrahydro-1H-2-benzazepine-4RS-acetic acid], the results for the Ki in assay [1] (read-out: αVβ3) and in assay [2] were 3.9 µM and 37.5 µM, respectively. For the same compound, the “ratio*” value in assay [1] was 9.6.

`CN1Cc2cc(C(=O)N3CCC(N4CCCCC4)CC3)ccc2NC(CC(=O)O)C1=O` (racemic) [Example 11, (±)-4-methyl-3-oxo-7-[1-[4-(1-piperidinyl)piperidinyl]carbonyl]-2,3,4,5-tetrahydro-1H-1,4-benzodiazepine-2-acetic acid]: the Ki came to 1.45 µM in assay [1] (read-out: αVβ3) and 20.1 µM in assay [2]. In assay [1], the “ratio*” value worked out at 14.

Consider `CN1Cc2cc(NC(=O)c3ccccn3)ccc2CC(CC(=O)O)C1=O` (racemic) [Example 5, (±)-2-methyl-3-oxo-8-[[2-(pyridinyl)carbonyl]amino]-2,3,4,5-tetrahydro-1H-2-benzazepine-4-acetic acid], for which the results for the Ki in assay [1] (read-out: αVβ3) and in assay [2] were 15.3 µM and more than 50 µM, respectively. The “ratio*” value in assay [1] is given as more than 3.
